The values below come from patent publication US12539285B2, “Therapeutic agent for hypertrophic cardiomyopathy” (JUNTENDO EDUCATIONAL FOUNDATION, priority 2021, dated 2026).

Structures are written as SMILES.

Assay [1] has as its system myocardial cells derived from iPS cells of hypertrophic cardiomyopathy patient (MYH7 R403Q). Kind of assay: Myocardial relaxation rate (SONY SI8000) in HCM patient iPS-derived myocardial cells. Format: cell-based. The settings on record: ALA/SFC 10 μM/5 μM, 30 μM/1 μM, 100 μM/50 μM; measured Day 20 and Day 26 vs before administration (Day 15); FIG. 1. The method, then: (§1) Myocardial cells differentiated from iPS cells derived from hypertrophic cardiomyopathy patient were purchased, seeded, and cultured and were then administered with 5-aminolevulinic acid and sodium ferrous citrate (ALA/SFC). As myocardial cells, […] Cardiomyocytes (MYH7 R403Q) (C1081, cat. #556-34781) (FUJIFILM Cellular Dynamics, Inc.) was used. As a control, myocardial cells derived from iPS cells of normal subject (Cell Cardiomyocytes (Control) (C1056, cat. #551-33491) (FUJIFILM Cellular Dynamics, Inc.) was used. As the culture medium for cell seeding, (iCell Plating medium (M1001, cat. #550-33581) (FUJIFILM Cellular Dynamics, Inc.) was used.
(§2) In the cell culture, as the culture medium, iCell Maintenance medium (M1003, cat. #557-3359I) (FUJIFILM Cellular Dynamics, Inc.) was used.
(§3) • Day 1: Cell seeding (myocardial cells derived from iPS cells of hypertrophic cardiomyopathy patient, myocardial cells derived from iPS cells of normal subject). The cells were seeded at 3×10^4 per well in a 96-well plastic plate (nunc); • Day 15: The relaxation rate before administration was measured using SONY SI8000, and ALA/SFC were then administered on the same day at the following doses. The doses were four groups of 0 μM/0 μM, 10 μM/5 μM, 30 μM/1 μM, and 100 μM/50 μM of ALA/SFC for each of the disease myocardial cells and the normal myocardial cells. […]

Assay [2] deals with myocardial cells derived from iPS cells of normal subject. The experiment in a line: Myocardial relaxation rate (SONY SI8000) in normal myocardial cells. The settings on record: ALA/SFC 10 μM/5 μM, 30 μM/1 μM, 100 μM/50 μM; measured Day 20 and Day 26 vs before administration (Day 15); FIG. 2. It counts as cell-based. The method, then:
as §1, §2, §3

Assay [3] concerns myocardial cells derived from iPS cells of hypertrophic cardiomyopathy (HCM) patient. The experiment in a line: Fluorescent calcium imaging, peak width of Ca-imaging waveform. Format: cell-based. The settings on record: 10 μM and 30 μM 5-aminolevulinic acid added from 7th day after seeding; FIG. 4. The source says: The determinant of the myocardial relaxation rate is the dissociation rate of myosin and actin, and one of factors of determining the dissociation rate is the Ca^2+ uptake function of ATPase present in the longitudinal tubules of sarcoplasmic reticulum. Accordingly, using the above-mentioned myocardial cells derived from iPS cells of hypertrophic cardiomyopathy (HCM) patient, the peak width of a Ca-imaging waveform, which reflects the disappearance rate of Ca^2+ in myocardial cells (i.e., the uptake rate of Ca^2+ into the sarcoplasmic reticulum) by addition of 5-aminolevulinic acid, was measured. […]
As the measurement apparatus for high content analysis, CQ1 Image Cytometer of Yokogawa Electric Corporation was used, and the measurement was performed with excitation light of 488 nm and fluorescence at 500 to 550 nm (spinning-disk confocal unit with microlens array). […]
Over the entire screen of the obtained image data, the fluorescence intensity was digitized over time to obtain fluorescence waveforms. […] The parameters calculated from a waveform were the line width (sec) at each of 10%, 20%, 30%, 50%, 70%, and 90% of the waveform height, the length (sec) of interval between each wave, and the fluorescence intensity (ΔF).

The test system of assay [4] is zebrafish cardiomyopathy model (myocardial troponin T knockdown (tnnt2a KD)). Kind of assay: Zebrafish cardiomyopathy model (tnnt2a KD), peak filling rate by heart imaging. The note with it: ALA/SFC 100 μM/50 μM in culture solution, DAY 0-2, imaging DAY 3; FIG. 5. Format: in vivo. The source says: A synthetic nucleic acid, morpholino antisense oligo (MO), which inhibits translation of zebrafish myocardial troponin T (tnnt2a), was used. The target sequence of tnnt2a-MO used for producing this cardiomyopathy model was 5′-[…]-3′ (SEQ ID NO: 1), and the target sequence of standard control MO (Control-MO) used as a negative control was 5′-[…]-3′ (SEQ ID NO: 2). Both MOs used were produced by Certified GeneTool, Inc. Standard control MO (Lis-MO) having the 3′ terminal labeled with a red fluorescent material, Lissamine, was used as an internal standard substance. An MO powder diluted with nuclease free water to 1 mM was used as a stock solution, and the final concentrations of the tnnt2a-MO and Control-MO were adjusted to 1.2 μM and the final concentration of Lis-MO was adjusted to 50 μM, using nuclease free water as a working solution for microinjection. […]
The acquired moving image was converted into sequence images, and the ventricular outline in each frame was recorded as Region of Interest (ROT). Subsequently, the major and minor axes of an ellipse approximating to the ROI on each sequence image were measured by Fit-to-Ellipse algorithm, the volume of the spheroid of each sequence image was calculated as a ventricular volume, and the peak filling rate (PFR: diastolic function) was measured from the rate of change in the obtained ventricular volume.

In the case of `NCC(=O)CCC(=O)O` [5-aminolevulinic acid], the “relaxation rate of myocardial cells in hypertrophic cardiomyopathy” value in assay [1] is “noticeably increased”. The “relaxation rate in normal myocardial cells” value in assay [2] is “did not increase”. Moreover, the “peak width at 50% of the height of a Ca-imaging waveform (uptake of Ca2+ into sarcoplasmic reticulum)” value in assay [3] was “obviously reduced”. For the same compound, the “left ventricular diastolic function (peak filling rate, PFR)” value in assay [4] is reported as “improved”.
